Test results published in patent publication US20250215029A1 (Recludix Pharma, Inc., priority 2022, published 2025).

Experiments:
[1] = biological target: T1, Recombinant STAT3 protein (STAT3 (G127-I722)) (Homo sapiens, UniProt P40763); experiment: STAT3 Fluorescence Polarization (FP) Assay; format: binding; details: STAT3 25 nM, probe 5-FAM-GpYLPQTV-NH2 2 nM, 45-minute incubation; read-out: STAT3 (FP assay IC50)
T1 construct: Recombinant STAT3 protein (STAT3 (G127-I722))
Procedure, shortened: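 Displacement of a 2 nM 5-FAM-labelled pY peptide (GpYLPQTV) from 25 nM recombinant STAT3 (G127-I722) was monitored by fluorescence polarization. Incubation lasted 45 min at room temperature in pH 7.4 HEPES buffer containing 1% DMSO.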

[2] = biological target: T2, Recombinant STAT6 protein (STAT6 (W123-T658)) (Homo sapiens, UniProt P42226); experiment: STAT6 Fluorescence Polarization (FP) Assay; format: binding; details: STAT6 250 nM, probe 5-FAM-Ap[…]-NH2 2 nM, 45-minute incubation; read-out: STAT6 (FP assay IC50)
T2 construct: Recombinant STAT6 protein (STAT6 (W123-T658))
T2 sequence (P42226 123-658): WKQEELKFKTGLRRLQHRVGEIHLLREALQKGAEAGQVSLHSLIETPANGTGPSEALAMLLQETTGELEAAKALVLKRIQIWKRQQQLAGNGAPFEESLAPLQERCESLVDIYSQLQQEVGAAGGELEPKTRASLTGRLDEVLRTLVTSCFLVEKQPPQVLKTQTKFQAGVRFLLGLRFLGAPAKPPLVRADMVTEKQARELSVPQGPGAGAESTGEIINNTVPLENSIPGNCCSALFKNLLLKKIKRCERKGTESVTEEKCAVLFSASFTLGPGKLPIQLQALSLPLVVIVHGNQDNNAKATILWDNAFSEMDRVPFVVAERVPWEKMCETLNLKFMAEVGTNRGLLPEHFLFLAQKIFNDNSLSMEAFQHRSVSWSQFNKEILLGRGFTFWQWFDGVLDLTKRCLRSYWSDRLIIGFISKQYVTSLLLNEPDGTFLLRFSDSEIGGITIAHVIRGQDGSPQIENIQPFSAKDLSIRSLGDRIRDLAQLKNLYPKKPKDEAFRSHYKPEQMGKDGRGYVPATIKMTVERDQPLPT
Procedure, shortened: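 Protein-probe mix (250 nM STAT6 W123-T658, 2 nM 5-FAM-pTyr peptide) in 10 mM HEPES pH 7.4, 50 mM NaCl, 1 mM EDTA, 0.05% Tween 20, 2 mM DTT; added to compound dilution series, 1% DMSO final; 45 min RT; FP read; IC50 via nonlinear regression.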

T1 sequence (P40763 127-722): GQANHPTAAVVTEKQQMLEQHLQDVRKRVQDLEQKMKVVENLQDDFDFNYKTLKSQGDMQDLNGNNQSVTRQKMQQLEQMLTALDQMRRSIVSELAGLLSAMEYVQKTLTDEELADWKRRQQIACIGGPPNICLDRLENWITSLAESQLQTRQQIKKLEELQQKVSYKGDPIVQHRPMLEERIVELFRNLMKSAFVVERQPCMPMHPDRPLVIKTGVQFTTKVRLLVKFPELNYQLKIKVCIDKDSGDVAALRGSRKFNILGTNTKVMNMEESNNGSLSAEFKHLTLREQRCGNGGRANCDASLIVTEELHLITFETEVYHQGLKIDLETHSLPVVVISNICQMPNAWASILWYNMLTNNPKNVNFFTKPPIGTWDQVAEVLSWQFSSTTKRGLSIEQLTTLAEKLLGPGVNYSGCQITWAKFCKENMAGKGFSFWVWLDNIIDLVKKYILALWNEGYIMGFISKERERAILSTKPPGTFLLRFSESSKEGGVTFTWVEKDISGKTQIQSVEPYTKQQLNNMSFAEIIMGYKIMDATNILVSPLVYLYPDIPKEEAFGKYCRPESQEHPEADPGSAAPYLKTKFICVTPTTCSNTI

| SMILES | IC50 [1] [nM] | IC50 [2] [nM] |
| --- | --- | --- |
| COc1ccc(N(C)C(=O)[C@@H]2CC[C@@H]3CCCC[C@H](NC(=O)c4cc5cc(C(F)(F)P(=O)(O)O)ccc5s4)C(=O)N32)cn1 [Compound 44, (difluoro(2-(((3S,6S,10aS)-3-((6-methoxypyridin-3-yl)(methyl)carbamoyl)-5-oxodecahydro-pyrrolo[1,2-a]azocin-6-yl)carbamoyl)benzo[b]thiophen-5-yl)methyl) phosphonic acid] | 1000 to 10000 | 300 to 3000 |
| O=C(N[C@H]1CCC[C@H]2CC[C@@H](C(=O)N3CC(O)(c4ccccn4)C3)N2C1=O)c1cc2cc(C(F)(F)P(=O)(O)O)ccc2s1 [Compound 45, (difluoro(2-(((3S,6S,9aS)-3-(3-hydroxy-3-(pyridin-2-yl)azetidine-1-carbonyl)-5-oxooctahydro-1H-pyrrolo[1,2-a]azepin-6-yl)carbamoyl)benzo[b]thiophen-5-yl)methyl) phosphonic acid] | < 100 | 300 to 3000 |
| O=C(N[C@H]1CCC[C@H]2CC[C@@H](C(=O)N3CC(c4ncccn4)C3)N2C1=O)c1cc2cc(C(F)(F)P(=O)(O)O)ccc2s1 [Compound 46, (difluoro(2-(((3S,6S,9aS)-5-oxo-3-(3-(pyrimidin-2-yl)azetidine-1-carbonyl)octahydro-1H-pyrrolo[1,2-a]azepin-6-yl)carbamoyl)benzo[b]thiophen-5-yl)methyl) phosphonic acid] | < 100 | 3000 to 30000 |
| COc1cc(CCN(C)C(=O)[C@@H]2CC[C@@H]3CCCC[C@H](NC(=O)c4cc5cc(C(F)(F)P(=O)(O)O)ccc5s4)C(=O)N32)ccn1 [Compound 47, (difluoro(2-(((3S,6S,10aS)-3-((2-(2-methoxypyridin-4-yl)ethyl)(methyl)carbamoyl)-5-oxodecahydropyrrolo [1,2-a]azocin-6-yl)carbamoyl)benzo[b]thiophen-5-yl)methyl) phosphonic acid] | 1000 to 10000 | 300 to 3000 |
| O=C(N[C@H]1CCCC[C@H]2CC[C@@H](C(=O)N3CCc4c(cc[nH]c4=O)C3)N2C1=O)c1cc2cc(C(F)(F)P(=O)(O)O)ccc2s1 [Compound 48, (difluoro(2-(((3S,6S,10aS)-5-oxo-3-(5-oxo-1,2,3,4,5,6-hexahydro-2,6-naphthyridine-2-carbonyl)decahydropyrrolo [1,2-a]azocin-6-yl)carbamoyl)benzo[b]thiophen-5-yl)methyl) phosphonic acid] | 1000 to 10000 | 3000 to 30000 |
| O=C(N[C@H]1CCCC[C@H]2CC[C@@H](C(=O)NCc3cc[nH]c(=O)c3)N2C1=O)c1cc2cc(C(F)(F)P(=O)(O)O)ccc2s1 [Compound 49, (difluoro(2-(((3S,6S,10aS)-5-oxo-3-(((2-oxo-1,2-dihydropyridin-4-yl)methyl)carbamoyl)deca-hydropyrrolo[1,2-a]azocin-6-yl)carbamoyl)benzo[b]thiophen-5-yl)methyl) phosphonic acid] | 100 to 1000 | 3000 to 30000 |
| N#CCC1CN(C(=O)[C@@H]2CC[C@@H]3CCC[C@H](NC(=O)c4cc5cc(C(F)(F)P(=O)(O)O)ccc5s4)C(=O)N32)C1 [Compound 50, ((2-(((3S,6S,9aS)-3-(3-(cyanomethyl)azetidine-1-carbonyl)-5-oxooctahydro-1H-pyrrolo[1,2-a]azepin-6-yl)carbamoyl)benzo[b]thiophen-5-yl)difluoromethyl) phosphonic acid] | 100 to 1000 | 300 to 3000 |
| N#Cc1cccc(C2CN(C(=O)[C@@H]3CC[C@@H]4CCC[C@H](NC(=O)c5cc6cc(C(F)(F)P(=O)(O)O)ccc6s5)C(=O)N43)C2)c1 [Compound 51, ((2-(((3S,6S,9aS)-3-(3-(3-cyanophenyl)azetidine-1-carbonyl)-5-oxooctahydro-1H-pyrrolo[1,2-a]azepin-6-yl)carbamoyl)benzo[b]thiophen-5-yl)difluoromethyl) phosphonic acid] | < 100 | 300 to 3000 |
| N#Cc1[nH]nc2ccc(NC(=O)[C@@H]3CC[C@@H]4CCCC[C@H](NC(=O)c5cc6cc(C(F)(F)P(=O)(O)O)ccc6s5)C(=O)N43)cc12 [Compound 52, ((2-(((3S,6S,10aS)-3-((3-cyano-2H-indazol-5-yl)carbamoyl)-5-oxodecahydropyrrolo [1,2-a]azocin-6-yl)carbamoyl)benzo[b]thiophen-5-yl)difluoromethyl) phosphonic acid] | 1000 to 10000 | 300 to 3000 |
| O=C(N[C@H]1CCCC[C@H]2CC[C@@H](C(=O)N3CC(F)(c4ccccc4)C3)N2C1=O)c1cc2cc(C(F)(F)P(=O)(O)O)ccc2s1 [Compound 53, (difluoro(2-(((3S,6S,10aS)-3-(3-fluoro-3-phenylazetidine-1-carbonyl)-5-oxodecahydropyrrolo [1,2-a]azocin-6-yl)carbamoyl)benzo[b]thiophen-5-yl)methyl) phosphonic acid] | < 100 | 300 to 3000 |
| O=C(N[C@H]1CCCC[C@H]2CC[C@@H](C(=O)N3CC(F)(c4ccccc4F)C3)N2C1=O)c1cc2cc(C(F)(F)P(=O)(O)O)ccc2s1 [Compound 54, (difluoro(2-(((3S,6S,10aS)-3-(3-fluoro-3-(2-fluorophenyl)azetidine-1-carbonyl)-5-oxodecahydropyrrolo [1,2-a]azocin-6-yl)carbamoyl)benzo[b]thiophen-5-yl)methyl) phosphonic acid] | < 100 | 300 to 3000 |
| O=C(N[C@H]1CCCC[C@H]2CC[C@@H](C(=O)Nc3ccc4nccc(Cl)c4c3)N2C1=O)c1cc2cc(C(F)(F)P(=O)(O)O)ccc2s1 [Compound 55, ((2-(((3S,6S,10aS)-3-((4-chloroquinolin-6-yl)carbamoyl)-5-oxodecahydropyrrolo [1,2-a]azocin-6-yl)carbamoyl)benzo[b]thiophen-5-yl)difluoromethyl) phosphonic acid] | 100 to 1000 | 300 to 3000 |
| CC(C)(O)c1cn(C2CN(C(=O)[C@@H]3CC[C@@H]4CCCC[C@H](NC(=O)c5cc6cc(C(F)(F)P(=O)(O)O)ccc6s5)C(=O)N43)C2)nn1 [Compound 56, (difluoro(2-(((3S,6S,10aS)-3-(3-(4-(2-hydroxypropan-2-yl)-1H-1,2,3-triazol-1-yl)azetidine-1-carbonyl)-5-oxodecahydropyrrolo [1,2-a]azocin-6-yl)carbamoyl)benzo[b]thiophen-5-yl)methyl) phosphonic acid] | 100 to 1000 | 3000 to 30000 |
| O=C(N[C@H]1CCCC[C@H]2CC[C@@H](C(=O)Nc3ccc4c(c3)CCS4(=O)=O)N2C1=O)c1cc2cc(C(F)(F)P(=O)(O)O)ccc2s1 [Compound 57, ((2-(((3S,6S,10aS)-3-((1,1-dioxido-2,3-dihydrobenzo[b]thiophen-5-yl)carbamoyl)-5-oxodecahydropyrrolo [1,2-a]azocin-6-yl)carbamoyl)benzo[b]thiophen-5-yl)difluoromethyl) phosphonic acid] | 100 to 1000 | 300 to 3000 |
| O=C(N[C@H]1CCCC[C@H]2CC[C@@H](C(=O)Nc3ccc4c(c3)CCCS4(=O)=O)N2C1=O)c1cc2cc(C(F)(F)P(=O)(O)O)ccc2s1 [Compound 58, ((2-(((3S,6S,10aS)-3-((1,1-dioxidothio-chroman-6-yl)carbamoyl)-5-oxodecahydropyrrolo [1,2-a]azocin-6-yl)carbamoyl)benzo[b]thiophen-5-yl)difluoro-methyl)phosphonic acid] | 100 to 1000 | 300 to 3000 |
